Results from patent US20060252774A1, “Regulation of type 5 adenylyl cyclase for treatment of neurodegenerative and cardiac diseases” (priority 2002, published 2006).
Entries after “also recorded” stand apart in the source; their conditions may differ.

How the values were obtained:
[1] = target: T1, AC3 (Rattus norvegicus, UniProt P21932); test: Adenyl cyclase stimulation by forskolin derivatives, High five cell membranes overexpressing type III; format: biochemical; details: 5 mM MgCl2
T1 sequence (P21932 1-1144): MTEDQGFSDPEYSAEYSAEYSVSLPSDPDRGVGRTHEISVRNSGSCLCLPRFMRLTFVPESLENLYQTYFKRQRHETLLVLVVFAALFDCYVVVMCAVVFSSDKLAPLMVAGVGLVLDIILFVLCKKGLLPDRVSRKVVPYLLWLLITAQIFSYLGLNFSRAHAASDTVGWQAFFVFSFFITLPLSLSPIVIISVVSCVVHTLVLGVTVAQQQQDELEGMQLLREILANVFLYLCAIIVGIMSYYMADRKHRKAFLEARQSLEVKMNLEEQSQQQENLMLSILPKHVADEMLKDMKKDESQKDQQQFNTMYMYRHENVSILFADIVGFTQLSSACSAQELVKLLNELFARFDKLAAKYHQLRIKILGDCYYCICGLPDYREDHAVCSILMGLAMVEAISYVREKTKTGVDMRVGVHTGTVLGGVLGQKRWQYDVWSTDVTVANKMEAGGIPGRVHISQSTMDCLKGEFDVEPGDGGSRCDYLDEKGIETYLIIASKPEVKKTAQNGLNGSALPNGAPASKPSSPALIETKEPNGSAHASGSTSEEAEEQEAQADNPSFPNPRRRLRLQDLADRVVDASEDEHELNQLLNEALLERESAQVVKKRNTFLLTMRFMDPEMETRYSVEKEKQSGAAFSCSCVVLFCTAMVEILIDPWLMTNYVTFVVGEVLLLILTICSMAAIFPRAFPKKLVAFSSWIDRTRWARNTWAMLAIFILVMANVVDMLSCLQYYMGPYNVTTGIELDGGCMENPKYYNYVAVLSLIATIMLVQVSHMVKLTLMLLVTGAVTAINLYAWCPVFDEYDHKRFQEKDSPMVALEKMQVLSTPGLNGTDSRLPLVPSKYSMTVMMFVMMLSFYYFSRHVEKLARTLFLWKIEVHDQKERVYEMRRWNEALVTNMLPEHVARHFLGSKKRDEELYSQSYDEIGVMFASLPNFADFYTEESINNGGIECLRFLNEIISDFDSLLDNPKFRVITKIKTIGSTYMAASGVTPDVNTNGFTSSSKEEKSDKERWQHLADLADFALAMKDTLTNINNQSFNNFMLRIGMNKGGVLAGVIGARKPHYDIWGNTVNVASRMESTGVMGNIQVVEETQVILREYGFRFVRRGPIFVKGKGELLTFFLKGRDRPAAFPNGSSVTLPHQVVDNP
Experimental: (§1) FIG. 15: Effect of forskolin, 6[3-(dimethylamino)propionyl]-14,15-dihydroforskolin, and NKH477 on adenyl cyclase [isforms.] isoforms: Forskolin derivatives dose response effect (A-C). High five cell membranes overexpressing type II (A), type III (B), and type V (C) adenyl cyclases. Adenyl cyclase activity was measured in the presence of 5 mM of MgCl2 with various concentrations of forskolin (closed circles), 6[3-(dimethylamino)propionyl]-14,15-dihydroforskolin (D, open triangles) or NKH477 (open circles). Means±SEM from 4 independent experiments are shown. *, p<0.01 differences from the value with forskolin.

[2] = target: T2, AC2 (Rattus norvegicus, UniProt P26769); test: Adenyl cyclase stimulation by forskolin derivatives, High five cell membranes overexpressing type II; format: biochemical; parameters: made in house; host or cells: High Five insect cells (membranes); details: 5 mM MgCl2
Experimental: as §1

[3] = target: T3, AC5 (Canis lupus familiaris, UniProt P30803); test: Adenyl cyclase stimulation by forskolin derivatives, High five cell membranes overexpressing type V; format: biochemical; parameters: made in house; host or cells: High Five insect cells (membranes)
Experimental: as §1

[4] = target: T3, AC5; parameters: made in house; host or cells: High Five insect cells (membranes); details: previously reported; potency on AC2 and AC3 remained similar; cited from earlier work
[5] = tested on: AC5; test: AC catalytic activity inhibition, AC5 isoform; format: biochemical; details: for selectivity ratio between AC5 and AC2: inhibition of AC catalytic activity
Description: (§2) FIG. 11. […] The relative inhibitory activity versus control (% control activity) for various AC isoforms are shown. Data are means±S.D. of quadruplicate determinations.
(§3) Classic inhibitors of AC include adenosine analogs or P-site inhibitors, and MDL12330A, a non-nucleic acid inhibitor. However, not much was known about the isoform selectivity of these inhibitors. […] It was previously noted that AC2 was less sensitive to THFA than the other isoforms, giving a selectivity ratio of 1.8 when compared between AC6 and AC2.
(§4) Inventors will first determine the selectivity among the AC isoforms (FIG. 12). […] The IC50 values were calculated to be 0.32 micro M for AC5, 11.1 micro M for AC3, 65.3 micro M for AC2. The selectivity ratio of HI30435 was 207 between AC5 and AC2. […] The selectivity ratio was 18 between AC5 and AC2.

[6] = target: T1, AC3; test: AC catalytic activity inhibition, AC3 isoform; format: biochemical; details: for IC50: 5 mM MgCl2 with Gsalpha/GTPgammaS/forskolin (50 micro M)
Description: (§5) Classic inhibitors of AC include adenosine analogs or P-site inhibitors, and MDL12330A, a non-nucleic acid inhibitor.
(§6) Inventors will first determine the selectivity among the AC isoforms (FIG. 12).

[7] = target: T2, AC2; test: AC catalytic activity inhibition, AC2 isoform; format: biochemical
Description: as §5, §6

[8] = tested on: H9C2 cells; test: cAMP accumulation in H9C2 cells; format: cell-based; details: 10 micro M forskolin and isoproterenol; compound 10 micro M
Experimental: FIG. 10: Effect of NKY80 and HI30435 on cAMP accumulation in H9C2 cells.[:] H9C2 cells were incubated in the presence of 10 micro M forskolin and isoproterenol and NKY80 or HI30435 (10 micro M), followed by cAMP accumulation assays (n=4-5, p<0.01).
as §4

[9] = target: T3, AC5; test: AC catalytic activity inhibition, AC5 isoform; format: biochemical; parameters: IC50 for AC5; other: 5 mM MgCl2 with Gsalpha/GTPgammaS/forskolin (50 micro M); other: in the presence of Gsalpha/GTPgammaS/forskolin; other: 10 micro M; details: for IC50: 5 mM MgCl2 with Gsalpha/GTPgammaS/forskolin (50 micro M)
Description: as §2, §3, §4

[10] = tested on: striatal AC; test: D1 or D2 receptor agonist-stimulated AC activity in striatal membrane preparations; format: biochemical, mouse; details: WT striatal membranes; 1 μM
Experimental: AC catalytic activity was compared as previously described (15) using the membrane preparations from the striatum, cortex and cerebellum A). AC assays were conducted in the presence of 50 μM forskolin. […] D1 or D2 receptor agonist-stimulated AC activity was also examined (C). […] Each AC catalytic activity was compared to that in the presence of 10 μM GTP alone. Open bars, WT (^+/+); closed bars, AC5KO (^−/−). Means±SEM are shown. *p<0.05, **p<0.01, relative to ^+/+, n=4.
Striatal tissues were dissected from mice and membrane preparations were prepared for AC assays as previously described (10, 11).
We also examined receptor agonist-stimulated AC activity (FIG. 3C).

[11] = tested on: WT and AC5KO mice; test: Locomotor activity test with dopaminergic agonists; format: in vivo, mouse; details: subcutaneous, SKF38393 25 or 50 mg/kg, cabergoline 0.2 or 1.0 mg/kg
Experimental: FIG. 27. Motor dysfunction in ACD-^−/− mice. Rotarod test (A)—Each mouse was placed on a 3.5-cm diameter rod covered with rubber to evaluate rotarod performance (14). Mice were left for 1 minute on the rod for habituation. The rod rotated gradually increasing from 4 to 40 rpm over the course of 5 min and the time that mice could stay on an accelerating rotarod without failing was recorded. Five trials were conducted for each individual 10-25 min apart within the dark phase of the light/dark cycle. Mice that stayed on the rotarod for >300 sec were considered complete responders, and their latencies were recorded as 300 sec. *p<0.05, relative to ^+/+; ^+/−, n=17-20. […] Locomotor activity (B) was assessed using an activity monitor equipped with photocell beams (Columbus Instruments, Ohio, USA). The number of photobeam interruptions in each perpendicular axis was recorded and totaled for 5 min. The behavior of the mice was recorded simultaneously by video camera for later analysis, and their rearing actions were counted (C). *p<0.05, relative to ^+/+, n=15-20. […] The time until it turned completely downward (open bars, Tturn) and the time until it climbed down to the floor (closed bars, TLA) were measured *p<0.01, relative to ^+/+, n=14-17. […]
FIG. 32. […] In rotarod test, the best performance out of five trials in each individual was evaluated. […]

[12] = tested on: WT and AC5KO mice; test: Rotarod test with dopaminergic agonists; format: in vivo, mouse; details: WT and AC5KO; subcutaneous; 25 or 50 mg/kg
Experimental: (§7) FIG. 27. Motor dysfunction in ACD-^−/− mice. Rotarod test (A)—Each mouse was placed on a 3.5-cm diameter rod covered with rubber to evaluate rotarod performance (14). Mice were left for 1 minute on the rod for habituation. The rod rotated gradually increasing from 4 to 40 rpm over the course of 5 min and the time that mice could stay on an accelerating rotarod without failing was recorded. Five trials were conducted for each individual 10-25 min apart within the dark phase of the light/dark cycle. Mice that stayed on the rotarod for >300 sec were considered complete responders, and their latencies were recorded as 300 sec. *p<0.05, relative to ^+/+; ^+/−, n=17-20. Activity tests (B and C)—The tests were performed as previously described (14, 15). Mice were put in the darkened testing room 60 minutes for habituation before testing. Locomotor activity (B) was assessed using an activity monitor equipped with photocell beams (Columbus Instruments, Ohio, USA). The number of photobeam interruptions in each perpendicular axis was recorded and totaled for 5 min. The behavior of the mice was recorded simultaneously by video camera for later analysis, and their rearing actions were counted (C). *p<0.05, relative to ^+/+, n=15-20. Pole test (D)—In order to evaluate bradykinesia, pole test was performed (16). In brief, mice were placed head upward on the top of a rough-surfaced pole (8 mm in diameter and 50 cm in height) that was wrapped with gauze to prevent slipping. The time until it turned completely downward (open bars, Tturn) and the time until it climbed down to the floor (closed bars, TLA) were measured *p<0.01, relative to ^+/+, n=14-17. Means±SEM are shown. Homozygous to (ACD^−/−) (closed circles, ^−/−), heterozygous (shaded circles, ^+/−), and wild type (WT) (open circles, ^+/+).
(§8) FIG. 32. Effect of dopaminergic agonists on motor functions Effects of SKF38393 on locomotor activity (A), rotarod test (B), and pole test (C) were compared. […] In rotarod test, the best performance out of five trials in each individual was evaluated. […]

[13] = tested on: WT and AC5KO mice; test: Pole test with dopaminergic agonists; format: in vivo, mouse; details: subcutaneous
Experimental: as §7, §8

[14] = target: AC6 (Homo sapiens, UniProt O43306); details: previously noted; cited from earlier work
[15] = in the presence of Gsalpha/GTPgammaS/forskolin

T3 sequence (P30803 whole entry): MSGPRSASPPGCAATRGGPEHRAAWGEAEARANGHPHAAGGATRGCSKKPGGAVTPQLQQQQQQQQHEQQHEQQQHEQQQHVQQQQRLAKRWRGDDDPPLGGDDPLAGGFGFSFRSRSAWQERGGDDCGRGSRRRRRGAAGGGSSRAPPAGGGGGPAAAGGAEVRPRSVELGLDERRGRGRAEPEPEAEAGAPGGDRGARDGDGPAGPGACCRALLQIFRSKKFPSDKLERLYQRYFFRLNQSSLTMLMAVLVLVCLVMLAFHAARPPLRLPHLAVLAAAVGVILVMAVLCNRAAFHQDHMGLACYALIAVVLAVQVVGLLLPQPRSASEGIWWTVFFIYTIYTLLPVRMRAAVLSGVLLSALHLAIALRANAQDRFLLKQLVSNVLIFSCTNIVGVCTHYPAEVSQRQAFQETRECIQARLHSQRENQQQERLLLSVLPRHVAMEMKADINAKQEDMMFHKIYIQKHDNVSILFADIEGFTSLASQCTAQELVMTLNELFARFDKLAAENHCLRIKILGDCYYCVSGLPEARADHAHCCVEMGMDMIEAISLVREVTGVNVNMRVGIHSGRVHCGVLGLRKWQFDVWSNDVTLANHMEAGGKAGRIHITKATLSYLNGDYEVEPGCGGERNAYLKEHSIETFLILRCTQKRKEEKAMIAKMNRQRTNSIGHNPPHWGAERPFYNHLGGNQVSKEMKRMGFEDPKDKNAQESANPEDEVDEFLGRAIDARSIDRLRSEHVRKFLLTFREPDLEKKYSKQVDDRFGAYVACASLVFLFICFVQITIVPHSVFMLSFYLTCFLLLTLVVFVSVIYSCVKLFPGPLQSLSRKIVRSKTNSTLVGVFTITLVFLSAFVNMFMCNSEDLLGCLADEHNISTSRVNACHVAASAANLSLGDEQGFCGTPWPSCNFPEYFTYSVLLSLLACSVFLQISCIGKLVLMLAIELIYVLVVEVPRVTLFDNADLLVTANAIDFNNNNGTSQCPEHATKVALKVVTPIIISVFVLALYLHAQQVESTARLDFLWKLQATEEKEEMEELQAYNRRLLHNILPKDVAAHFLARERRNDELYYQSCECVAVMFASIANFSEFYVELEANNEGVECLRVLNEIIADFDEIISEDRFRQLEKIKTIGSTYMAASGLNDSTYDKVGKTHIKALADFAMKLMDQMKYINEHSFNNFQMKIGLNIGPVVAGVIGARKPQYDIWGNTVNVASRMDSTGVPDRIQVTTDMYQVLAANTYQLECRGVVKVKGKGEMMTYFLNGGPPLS
T2 sequence (P26769 whole entry): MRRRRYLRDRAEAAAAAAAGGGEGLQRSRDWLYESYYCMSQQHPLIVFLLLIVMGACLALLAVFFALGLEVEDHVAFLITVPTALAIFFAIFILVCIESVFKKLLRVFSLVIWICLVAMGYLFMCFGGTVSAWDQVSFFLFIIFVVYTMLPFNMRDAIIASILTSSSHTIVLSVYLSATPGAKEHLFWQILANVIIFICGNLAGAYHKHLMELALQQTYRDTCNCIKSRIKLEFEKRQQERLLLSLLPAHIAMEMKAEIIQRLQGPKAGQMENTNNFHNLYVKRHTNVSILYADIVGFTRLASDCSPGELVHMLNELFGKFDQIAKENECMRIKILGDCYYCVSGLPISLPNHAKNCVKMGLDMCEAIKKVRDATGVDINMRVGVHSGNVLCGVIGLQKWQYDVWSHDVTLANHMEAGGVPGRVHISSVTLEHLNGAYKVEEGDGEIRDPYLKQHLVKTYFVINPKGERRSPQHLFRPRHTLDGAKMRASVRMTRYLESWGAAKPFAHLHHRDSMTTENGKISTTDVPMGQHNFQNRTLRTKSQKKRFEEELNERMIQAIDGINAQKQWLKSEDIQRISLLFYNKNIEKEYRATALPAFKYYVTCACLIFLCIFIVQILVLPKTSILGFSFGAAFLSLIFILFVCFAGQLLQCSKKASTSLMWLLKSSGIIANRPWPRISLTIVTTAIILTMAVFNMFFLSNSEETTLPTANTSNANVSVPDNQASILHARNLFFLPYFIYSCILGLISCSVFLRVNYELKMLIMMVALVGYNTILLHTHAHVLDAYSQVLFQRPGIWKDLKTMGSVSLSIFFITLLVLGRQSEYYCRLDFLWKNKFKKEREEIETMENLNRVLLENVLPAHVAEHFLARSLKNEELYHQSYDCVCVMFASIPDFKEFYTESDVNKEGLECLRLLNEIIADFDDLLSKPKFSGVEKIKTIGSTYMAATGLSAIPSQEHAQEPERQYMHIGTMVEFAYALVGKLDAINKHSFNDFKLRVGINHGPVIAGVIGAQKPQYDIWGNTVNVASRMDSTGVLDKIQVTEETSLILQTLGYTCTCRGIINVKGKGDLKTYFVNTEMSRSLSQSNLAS
AC6, sequence (O43306 whole entry): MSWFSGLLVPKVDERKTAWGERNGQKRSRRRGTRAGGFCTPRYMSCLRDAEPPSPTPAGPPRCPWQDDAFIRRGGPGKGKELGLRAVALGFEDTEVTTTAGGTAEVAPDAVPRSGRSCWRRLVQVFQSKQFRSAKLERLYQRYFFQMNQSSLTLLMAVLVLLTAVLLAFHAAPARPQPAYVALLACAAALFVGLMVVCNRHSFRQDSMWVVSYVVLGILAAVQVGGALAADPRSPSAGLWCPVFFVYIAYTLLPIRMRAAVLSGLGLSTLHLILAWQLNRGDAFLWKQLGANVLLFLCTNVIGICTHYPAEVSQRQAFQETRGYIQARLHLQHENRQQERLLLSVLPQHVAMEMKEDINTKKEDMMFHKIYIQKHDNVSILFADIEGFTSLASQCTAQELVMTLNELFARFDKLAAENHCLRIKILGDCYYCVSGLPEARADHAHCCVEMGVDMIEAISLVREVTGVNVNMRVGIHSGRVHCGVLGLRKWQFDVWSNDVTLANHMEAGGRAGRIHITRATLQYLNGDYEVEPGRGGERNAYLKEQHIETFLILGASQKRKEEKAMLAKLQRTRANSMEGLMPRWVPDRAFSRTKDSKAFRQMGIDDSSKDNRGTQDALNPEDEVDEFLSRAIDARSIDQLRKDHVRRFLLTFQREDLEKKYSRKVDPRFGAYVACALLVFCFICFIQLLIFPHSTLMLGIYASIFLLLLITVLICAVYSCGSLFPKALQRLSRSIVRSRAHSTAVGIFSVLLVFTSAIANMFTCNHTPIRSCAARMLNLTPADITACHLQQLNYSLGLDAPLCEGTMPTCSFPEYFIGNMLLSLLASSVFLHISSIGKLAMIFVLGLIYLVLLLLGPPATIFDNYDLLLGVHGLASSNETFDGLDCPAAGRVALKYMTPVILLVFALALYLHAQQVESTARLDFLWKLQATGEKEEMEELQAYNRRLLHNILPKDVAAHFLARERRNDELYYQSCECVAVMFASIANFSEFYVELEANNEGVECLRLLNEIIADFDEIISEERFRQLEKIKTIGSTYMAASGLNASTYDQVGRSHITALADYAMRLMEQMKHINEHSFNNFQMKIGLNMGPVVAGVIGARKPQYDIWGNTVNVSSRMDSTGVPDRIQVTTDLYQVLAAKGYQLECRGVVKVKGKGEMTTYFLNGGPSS

With CCC1(C)CC(=O)C2(O)C(C)(O1)C(OC(C)=O)C(OC(=O)CCN(C)C)C1C(C)(C)CCC(O)C12C (centres unmarked) [6-3(dimethylaminopropionyl]-14,15-dihydroforskolin] the “relative potency of stimulation versus forskolin, AC3” value [1] was 31%, the “relative potency of stimulation versus forskolin, AC2” value [2] was 66% and the “relative potency of stimulation versus forskolin, AC5” value ([3]; 5 mM MgCl2) was 139%. The “AC5 selectivity of stimulation (in words)” value ([3]; forskolin derivatives) was “further enhancement in selectivity for AC5”.
In the case of C=C[C@@]1(C)CC(=O)[C@]2(O)[C@@]3(C)[C@@H](O)CCC(C)(C)[C@@H]3[C@H](OC(=O)CCN(C)C)[C@H](OC(C)=O)[C@@]2(C)O1 [NKH477], the “stimulation of AC5 (in words)” value [4] is given as “enhanced stimulation of AC5”.
For Nc1ncc2c(n1)CC(c1ccco1)CC2=O (centres unmarked) [NKY80, 2-amino-7-(2-furanyl)-7,8-dihydro-5(6H)-quinazolinone], the mode of inhibition ([5]; Lineweaver-Burk plot analysis) was “not competitive with respect to ATP or forskolin”, the “selectivity ratio between AC5 and AC2” value [5] was 210 and the IC50 [6] was 132 µM. For the same compound, the IC50 ([7]; Gsalpha/GTPgammaS/forskolin) was 1700 µM, the “cAMP accumulation in H9C2 cells” value [8] was “but not NKY80, inhibited cAMP accumulation; also recorded: did not” and the IC50 [9] was 8.3 µM.
With Oc1cc2c(cc1O)C(c1ccccc1)CNCC2 (centres unmarked) [SKF38393] the “stimulation of AC activity, increase over that with 10 μM GTP” value [10] was 40.7±2.6%, the locomotor activity [11] was “increased locomotor activity in both WT and AC5KO” and the rotarod performance [12] was “did not improve rotarod performance in both WT and AC5KO”. For the same compound, the pole test performance [13] was “improved pole test performance”.
For Nc1ncnc2c1ncn2C1CCCO1 (centres unmarked) [THFA, 9-(tetrahydro-2-furyl)adenine], the “selectivity ratio between AC5 and AC2” value [5] was 130, the IC50 [6] was 101 µM and the “inhibition of AC3 (in words)” value [6, 15] was “only to a modest degree”. The IC50 ([7]; 5 mM MgCl2 with Gsalpha/GTPgammaS/forskolin (50 micro M)) was 285 µM, the “inhibition of AC2 (in words)” value [7, 15] was “only to a modest degree” and the “selectivity ratio between AC6 and AC2” value [14] was 1.8. The IC50 [9] was 2.2 µM and the “inhibition of AC5 (in words)” value [9, 15] was “potently inhibited AC5”.
